In patent publication US6846824B2, “Bicyclic compounds and their use in medicine; process for their preparation and pharmaceutical compositions containing them” (Dr. Reddy's Laboratories Ltd., priority 1997, dated 2005):

Key:
Type in all cases: in vivo
[1] = tested on: Swiss albino mice and Guinea pigs; test: Plasma triglyceride and total cholesterol lowering activity in Swiss albino mice and Guinea pigs; settings: species (Swiss albino mice or Guinea pigs) not given
Procedure: Male Swiss albino mice (SAM) and male Guinea pigs were obtained from NIN and housed in DRF animal house. All these animals were maintained under 12 hour light and dark cycle at 25±1° C. Animals were given standard laboratory chow (NIN, Hyderabad, India) and water, ad libitum. SAM of 20-25 g body weight range and Guinea pigs of 500-700 g body weight range were used (Oliver, P., Plancke, M. O., Marzin, D., Clavey, V., Sauzieres, J and Fruchart, J. C. Effects of fenofibrate, gemfibrozil and nicotinic acid on plasma lipoprotein levels in normal and hyperlipidemic mice. Atherosclerosis. 1988. 70: 107-114).
The test compounds were administered orally to Swiss albino mice at 0.3 to 30 mg/kg/day dose for 6 days. Control mice were treated with vehicle (0.25% Carboxymethylcellulose; dose 10 ml/kg). The test compounds were administered orally to Guinea pigs at 0.3 to 30 mg/kg/day dose for 6 days. Control animals were treated with vehicle (0.25% Carboxymethylcellulose; dose 5 ml/kg).
The blood samples were collected in fed state 1 hour after drug administration on 0 and 6 day of treatment. The blood was collected from the retro-orbital sinus through heparinised capillary in EDTA containing tubes. After centrifugation, plasma sample was separated for triglyceride and total cholesterol (Wieland, 0. Methods of Enzymatic analysis. Bergermeyer, H. O., Ed., 1963. 211-214; Trinder, P. Ann. Clin. Biochem. 1969. 6: 24-27). Measurement of plasma triglyceride, total cholesterol and HDL were done using commercial kits (Dr. Reddy's Diagnostic Division, Hyderabad, India).
(§1) Formulae for Calculation: • 1. Percent reduction in Blood sugar/triglycerides/total cholesterol/body weight were calculated according to the formula: • Percent reduction [formula] OC=Zero day control group value OT=Zero day treated group value TC=Test day control group value TT=Test day treated group value

C57BL/KsJ-db/db mice = test: Blood sugar and triglycerides lowering activity in db/db mice (genetic model)
Excerpt: Mutation in colonies of laboratory animals and different sensitivities to dietary regimens have made the development of animal models with non-insulin dependent diabetes and hyperlipidemia associated with obesity and insulin resistance possible. Genetic models such as db/db and ob/ob (Diabetes, (1982) 31(1): 1-6) mice and zucker fa/fa rats have been developed by the various laboratories for understanding the pathophysiology of disease and testing the efficacy of new antidiabetic compounds (Diabetes, (1983) 32: 830-838; Annu. Rep. Sankyo Res. Lab. (1994). 46 : 1-57). The homozygous animals, C57 BL/KsJ-db/db mice developed by Jackson Laboratory, US, are obese, hyperglycemic, hyperinsulinemic and insulin resistant (J. Clin. Invest., (1990) 85: 962-967), whereas heterozygous are lean and normoglycemic. In db/db model, mouse progressively develops insulinopenia with age, a feature commonly observed in late stages of human type II diabetes when blood sugar levels are insufficiently controlled. The state of pancreas and its course vary according to the models. Since this model resembles that of type II diabetes mellitus, the compounds of the present invention were tested for blood sugar and triglycerides lowering activities.
Male C57BL/KsJ-db/db mice of 8 to 14 weeks age, having body weight range of 35 to 60 grams, bred at Dr. Reddy's Research Foundation (DRF)animal house, were used in the experiment. The mice were provided with standard feed (National Institute of Nutrition (NIN), Hyderabad, India) and acidified water, ad libitum. The animals having more than 350 mg/dl blood sugar were used for testing. The number of animals in each group was 4.
Test compounds were suspended on 0.25% carboxymethyl cellulose and administered to test group at a dose of 0.1 mg to 30 mg/kg through oral gavage daily for 6 days. The control group received vehicle (dose 10 ml/kg). On 6th day the blood samples were collected one hour after administration of test compounds/vehicle for assessing the biological activity.
The random blood sugar and triglyceride levels were measured by collecting blood (100 μl) through orbital sinus, using heparinised capillary in tubes containing EDTA which was centrifuged to obtain plasma. The plasma glucose and triglyceride levels were measured spectrometrically, by glucose oxidase and glycerol-3-PO4 oxidase/peroxidase enzyme (Dr. Reddy's Lab. Diagnostic Division Kits, Hyderabad, India) methods respectively.
The blood sugar and triglycerides lowering activities of the test compound was calculated according to the formula.
as §1

[2] = tested on: hypercholesterolemic Sprague Dawley rats; test: Plasma triglyceride and cholesterol lowering activity in hypercholesterolemic rat models; settings: 1 mg/kg orally for 3 days; for HDL (%) ↑: increase; for Total Cholesterol (%) ↓ / Triglyceride (%) ↓ / LDL (%) ↓ / VLDL (%) ↓: reduction; for LDL (%) ↓: LDL calculated from total cholesterol; for LDL (%) ↓ / VLDL (%) ↓: HDL and triglyceride; for VLDL (%) ↓: VLDL calculated from total cholesterol
Procedure: Male Sprague Dawley rats (NIN stock) were bred in DRF animal house. Animals were maintained under 12 hour light and dark cycle at 25±1° C. Rats of 180 -200 gram body weight range were used for the experiment. Animals were made hypercholesterolemic by feeding 2% cholesterol and 1% sodium cholate mixed with standard laboratory chow [National Institute of Nutrition (NIN), Hyderabad, India] for 6 days. Throughout the experimental period the animals were maintained on the same diet (Petit, D., Bonnefis, M. T., Rey, C and Infante, R. Effects of ciprofibrate on liver lipids and lipoprotein synthesis in normo- and hyperlipidemic rats. Atherosclerosis. 1988. 74:215-225).
The test compounds were administered orally at a dose 0.1 to 30 mg/kg/day for 3 days. Control group was treated with vehicle alone (0.25% Carboxymethylcellulose; dose 10 ml/kg).
The blood samples were collected in fed state 1 hour after drug administration on 0 and 3 day of compound treatment. The blood was collected from the retro-orbital sinus through heparinised capillary in EDTA containing tubes. After centrifugation, plasma sample was separated for total cholesterol, HDL and triglyceride estimations. Measurement of plasma triglyceride, total cholesterol and HDL were done using commercial kits (Dr. Reddy's Laboratory, Diagnostic Division, India). LDL and VLDL cholesterol were calculated from the data obtained for total cholesterol, HDL and triglyceride. The reduction of various parameters examined are calculated according to the formula.
as §1
2. LDL and VLDL cholesterol levels were calculated according to the formula: [formula] [formula]

[3] = tested on: cholesterol fed Syrian Hamsters; test: Body weight reducing effect in cholesterol fed hamsters; settings: 10 mg/kg/day orally for 15 days
Procedure: Male Syrian Hamsters were procured from NIN, Hyderabad, India. Animals were housed at DRF animal house under 12 hour light and dark cycle at 25±1° C. with free access to food and water. Animals were maintained with 1% cholesterol containing standard laboratory chow (NIN) from the day of treatment.
The test compounds were administered orally at 1 to 30 mg/kg/day dose for 15 days. Control group animals were treated with vehicle (Mill Q water, dose 10 ml/kg/day). Body weights were measured on every 3rd day.
as §1

[4] = 3 mg/kg oral gavage daily for 6 days
[5] = 10 mg/kg oral gavage daily for 6 days

SMILES: CCOC(Cc1ccc(OCC2CN(Cc3ccccc3)c3ccccc3O2)cc1)C(=O)[O-].[Na+] (stereo not shown) [Example 63, 3-[4-(4-Benzyl-3,4-dihydro-2H-1,4-benzoxazin-2-yl)methoxyphenyl]-2-ethoxypropanoic acid, sodium salt]
- Triglyceride Lowering (%) ([1]; 3 mg/kg orally for 6 days): 57%

SMILES: CCOC(Cc1ccc2cc(OCCN3CCSc4ccccc43)ccc2c1)C(=O)O (racemic) [Example 43, 3-[6-[2-(2,3-Dihydro-1,4-benzothiazin-4-yl)ethoxy]naphthyl]-2-ethoxypropanoic acid]
- Triglyceride Lowering (%) ([1]; 3 mg/kg orally for 6 days): 49%

SMILES: CCCCOC(Cc1ccc(OCCN2CCOc3ccccc32)cc1)C(=O)[O-].[Na+] (stereo not shown) [Example 50, 3-[4-[2-(2,3-Dihydro-1,4-benzoxazin-4-yl)ethoxy]phenyl]-2-butoxypropanoic acid, sodium salt]
- Reduction in Blood Glucose Level (%) (C57BL/KsJ-db/db mice; [4]): 45%
- Triglyceride Lowering (%) (C57BL/KsJ-db/db mice; [4]): 23%

SMILES: CCOC(Cc1ccc2cc(OCCN3CCSc4ccccc43)ccc2c1)C(=O)[O-].[Na+] (stereo not shown) [Example 44]
- HDL (%) ↑ [2]: 46%
- Total Cholesterol (%) ↓ [2]: 42%
- Triglyceride (%) ↓ [2]: 50%
- LDL (%) ↓ [2]: 44%
- VLDL (%) ↓ [2]: 53%
- Reduction in Blood Glucose Level (%) (C57BL/KsJ-db/db mice; [5]): 47%
- Triglyceride Lowering (%) (C57BL/KsJ-db/db mice; [5]): 74%

SMILES: CCOC(Cc1ccc(OCCN2CCOc3ccccc32)cc1)C(N)=O (racemic) [Example 33, 3-[4-[2-(2,3-Dihydro-1,4-benzoxazin-4-yl)ethoxy]phenyl]-2-ethoxypropanamide]
- Triglyceride Lowering (%) ([1]; 3 mg/kg orally for 6 days): 55%

SMILES: CCOC(Cc1ccc(OCCN2C(=O)COc3ccccc32)cc1)C(=O)O (racemic) [Example 41, 3-[4-[2-(3-Oxo-2H-1,4-benzoxazin-4-yl)ethoxy]phenyl]-2-ethoxypropanoic acid]
- Reduction in Blood Glucose Level (%) (C57BL/KsJ-db/db mice; [4]): 53%
- Triglyceride Lowering (%) (C57BL/KsJ-db/db mice; [4]): 27%
- Triglyceride Lowering (%) ([1]; 10 mg/kg orally for 6 days): 54%

SMILES: CCOC(Cc1ccc(OCCN2CCOc3ccccc32)cc1)C(=O)[O-].[Na+] (stereo not shown) [Example 27, 3-[4-[2-(2,3-Dihydro-1,4-benzoxazin-4-yl)ethoxy]phenyl]-2-ethoxypropanoic acid, sodium salt]
- Body weight Reduction (%) [3]: 12%
- HDL (%) ↑ [2]: 37%
- Total Cholesterol (%) ↓ [2]: 57%
- Triglyceride (%) ↓ [2]: 43%
- LDL (%) ↓ [2]: 58%
- VLDL (%) ↓ [2]: 79%

SMILES: CCOC(Cc1ccc(OCCN2CCSc3ccccc32)cc1)C(=O)[O-].[Na+] (stereo not shown) [Example 30, 3-[4-[2-(2,3-Dihydro-1,4-benzothiazin-4-yl)ethoxy]phenyl]-2-ethoxypropanoic acid, sodium salt]
- Body weight Reduction (%) [3]: 18%
